test system: LNCaP cells expressing ARR2PB-FireflyLuc and CMV-RenillaLuc; test: LNCaP ARR2PB-FireflyLuc reporter assay, antagonist mode; type: cell-based; conditions: Homo sapiens, LNCaP, 48 h, +0.5 nM DHT, 48 h at 37° C., read-out: LNCap Antagonist Archive: IC50;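 note: IC50 bins in nM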
Description: LNCaP cells expressing ARR2PB-FireflyLuc and CMV-RenillaLuc were treated with indicated concentrations of test compounds, enzalutamide (negative control), or DHT (positive control)+/−0.5 nM DHT for 48 h at 37° C. Fluorescent signals were read with the ImageXpress Micro Confocal System. Remaining activity (antagonist mode) was calculated as % Remaining Activity=100×[(ReadSample−LCave)/(HCave−LCave)] where HC is cells treated with 0.5 nM DHT only and LC is cells treated with 10 uM enzalutamide+0.5 nM DHT. Activation (agonist mode) was calculated as % Activation=100×[(ReadSample−LCave)/(HCave−LCave)] where HO is cells treated with 1 uM DHT and LC is cells treated with DMSO. Dose response curves and IC50 values were calculated using non-linear regression analysis in XLfit.
The designation “A” indicates an IC50 value of >10 μM, “B” indicates an IC50 value between 1 μM and 10 μM; “C” indicates an IC50 value between 100 nM and 1 μM; and “D” indicates an IC50 value of less than 100 nM.

| SMILES | IC50 [nM] |
| --- | --- |
| Cn1c(C(=O)NC23CC(F)(C2)C3)cc2cccc(Cl)c21 [Example 114, 7-chloro-N-{3-fluorobicyclo[1.1.1]pentan-1-yl}-1-methylindole-2-carboxamide] | < 100 |
| CN(C(=O)c1cc2cccc(Cl)c2o1)c1ccc(F)cc1 [Example 35, 7-chloro-N-(4-fluorophenyl)-N-methyl-1-benzofuran-2-carboxamide] | 1000 to 10000 |
| Cn1c(C(=O)NC23CC(F)(C2)C3)cc2ccnc(C3CC3)c21 [Example 120, 7-cyclopropyl-N-{3-fluorobicyclo[1.1.1]pentan-1-yl}-1-methylpyrrolo[2,3-c]pyridine-2-carboxamide] | 1000 to 10000 |
| CN(C(=O)c1cc2cccc(C#N)c2[nH]1)C1CCCC1 [Example 20, 7-cyano-N-cyclopentyl-N-methyl-1H-indole-2-carboxamide] | 1000 to 10000 |
| CC1(C)CC(NC(=O)c2cc3cccc(Cl)c3[nH]2)CO1 (stereo not drawn) [Example 63, 7-chloro-N-(5,5-dimethyloxolan-3-yl)-1H-indole-2-carboxamide] | > 10000 |
| CCn1c(C(=O)N(C)C23CC(F)(C2)C3)cc2ccnc(C#N)c21 [Example 151, 7-cyano-1-ethyl-N-(3-fluorobicyclo[1.1.1]pentan-1-yl)-N-methyl-1H-pyrrolo[2,3-c]pyridine-2-carboxamide] | 100 to 1000 |
| COCCN(C(=O)c1cc2ccc(F)cc2[nH]1)c1ccc(C#N)cc1 [Example 51, N-(4-cyanophenyl)-6-fluoro-N-(2-methoxyethyl)-1H-indole-2-carboxamide] | 1000 to 10000 |
| CN(C(=O)c1cc2cccc(Cl)c2[nH]1)C1CCOC1 (stereo not drawn) [Example 31, 7-chloro-N-methyl-N-(oxolan-3-yl)-1H-indole-2-carboxamide] | 100 to 1000 |
| Cn1c(C(=O)NC23CC(F)(C2)C3)c(F)c2ccnc(Cl)c21 [Example 140, 7-chloro-3-fluoro-N-{3-fluorobicyclo[1.1.1]pentan-1-yl}-1-methylpyrrolo[2,3-c]pyridine-2-carboxamide] | 100 to 1000 |
| CC(C)N1CCC(N(C)C(=O)c2cc3cccc(Cl)c3[nH]2)C1 (stereo not drawn) [Example 41, 7-chloro-N-(1-isopropylpyrrolidin-3-yl)-N-methyl-1H-indole-2-carboxamide] | > 10000 |
| Cn1c(C(=O)NC23CC(C2)C3)cc2ccc(C#N)cc21 [Example 155, N-(bicyclo[1.1.1]pentan-1-yl)-6-cyano-1-methyl-1H-indole-2-carboxamide] | 1000 to 10000 |
| C[C@H]1OCC[C@@H]1NC(=O)c1cc2cccc(Cl)c2[nH]1 [Example 61, 7-chloro-N-[(2R,3S)-2-methyloxolan-3-yl]-1H-indole-2-carboxamide] | 100 to 1000 |
| Cc1nccc2cc(C(=O)N(C)C34CC(F)(C3)C4)n(C)c12 [Example 132, N-{3-fluorobicyclo[1.1.1]pentan-1-yl}-N,1,7-trimethylpyrrolo[2,3-c]pyridine-2-carboxamide] | 1000 to 10000 |
| CC(C)N(Cc1ccco1)C(=O)c1cc2cccc(C#N)c2[nH]1 [Example 3, 7-cyano-N-(furan-2-ylmethyl)-N-isopropyl-1H-indole-2-carboxamide] | 1000 to 10000 |
| O=C(NC12CC(C1)C2)c1cc2ccncc2[nH]1 [Example 103, N-[bicyclo[1.1.1]pentan-1-yl]-1H-pyrrolo[2,3-c]pyridine-2-carboxamide] | > 10000 |
| Cc1c(C(=O)NC23CC(F)(C2)C3)[nH]c2c(Cl)cccc12 [Example 109, 7-chloro-N-[3-fluorobicyclo[1.1.1]pentan-1-yl]-3-methyl-1H-indole-2-carboxamide] | 100 to 1000 |
| COc1nccc2cc(C(=O)NC34CC(F)(C3)C4)n(C)c12 [Example 118, N-{3-fluorobicyclo[1.1.1]pentan-1-yl}-7-methoxy-1-methylpyrrolo[2,3-c]pyridine-2-carboxamide] | 1000 to 10000 |

| SMILES | IC50 [nM] |
| --- | --- |
| CN(C(=O)c1cc2cccc(Cl)c2o1)c1ccccn1 [Example 37, 7-chloro-N-methyl-N-(pyridin-2-yl)-1-benzofuran-2-carboxamide] | > 10000 |
| CN(C(=O)c1cc2cccc(Cl)c2[nH]1)C1CCCOC1 (stereo not drawn) [Example 73, 7-chloro-N-methyl-N-(oxan-3-yl)-1H-indole-2-carboxamide] | > 10000 |
| N#Cc1ccc(N(C(=O)c2cc3cccc(Cl)c3[nH]2)C2CCOC2)cc1 (stereo not drawn) [Example 83, 7-chloro-N-(4-cyanophenyl)-N-(oxolan-3-yl)-1H-indole-2-carboxamide] | < 100 |
| CN(C(=O)c1cc2cccc(Cl)c2[nH]1)C1CCCC1 [Example 30, 7-chloro-N-cyclopentyl-N-methyl-1H-indole-2-carboxamide] | 100 to 1000 |
| O=C(NC12CC(F)(C1)C2)c1cc2ccnc(Cl)c2n1CCN1CCOCC1 [Example 141, 7-chloro-N-{3-fluorobicyclo[1.1.1]pentan-1-yl}-1-[2-(morpholin-4-yl)ethyl]pyrrolo[2,3-c]pyridine-2-carboxamide] | > 10000 |
| COCCN(C(=O)c1cc2cccc(Cl)c2[nH]1)c1ccc(C#N)c(C)c1 [Example 76, 7-chloro-N-(4-cyano-3-methylphenyl)-N-(2-methoxyethyl)-1H-indole-2-carboxamide] | 1000 to 10000 |
| CN(C(=O)c1cc2cccc(Cl)c2[nH]1)C1CCCNC1 (stereo not drawn) [Example 42, 7-chloro-N-methyl-N-(piperidin-3-yl)-1H-indole-2-carboxamide] | > 10000 |
| COc1nccc2cc(C(=O)N(C)C34CC(C3)C4)[nH]c12 [Example 96, N-[bicyclo[1.1.1]pentan-1-yl]-7-methoxy-N-methyl-1H-pyrrolo[2,3-c]pyridine-2-carboxamide] | 1000 to 10000 |
| COCCN(C(=O)c1cc2ccc(F)cc2[nH]1)c1cnn(C)c1 [Example 49, 6-fluoro-N-(2-methoxyethyl)-N-(1-methylpyrazol-4-yl)-1H-indole-2-carboxamide] | > 10000 |
| COCCN(C(=O)c1cc2cccc(Cl)c2[nH]1)c1ccc(C#N)cc1F [Example 79, 7-chloro-N-(4-cyano-2-fluorophenyl)-N-(2-methoxyethyl)-1H-indole-2-carboxamide] | 1000 to 10000 |
| COCCNC(=O)c1cc2ccc(F)cc2n1-c1ccc(Cl)cn1 [Example 53, 1-(5-chloropyridin-2-yl)-6-fluoro-N-(2-methoxyethyl)-1H-indole-2-carboxamide] | > 10000 |
| NCCn1c(C(=O)NC23CC(F)(C2)C3)cc2ccnc(Cl)c21 [Example 137, 1-(2-aminoethyl)-7-chloro-N-{3-fluorobicyclo[1.1.1]pentan-1-yl}pyrrolo[2,3-c]pyridine-2-carboxamide] | > 10000 |
| CN(C)C(=O)c1cc2cccc(Cl)c2[nH]1 [Example 29, 7-chloro-N,N-dimethyl-1H-indole-2-carboxamide] | 1000 to 10000 |
| CC(C)N(Cc1ccccn1)C(=O)c1cc2ccc(F)cc2[nH]1 [Example 7, 6-fluoro-N-isopropyl-N-(pyridin-2-ylmethyl)-1H-indole-2-carboxamide] | > 10000 |
| CC(C)N(Cc1cnco1)C(=O)c1cc2cccc(Cl)c2[nH]1 [Example 67, 7-chloro-N-isopropyl-N-(1,3-oxazol-5-ylmethyl)-1H-indole-2-carboxamide] | 100 to 1000 |
| O=C(NC12CC(F)(C1)C2)c1cc2ccnc(Cl)c2n1CCO [Example 138, 7-chloro-N-{3-fluorobicyclo[1.1.1]pentan-1-yl}-1-(2-hydroxyethyl)pyrrolo[2,3-c]pyridine-2-carboxamide] | 1000 to 10000 |
